Test results reported in the supplement of paper PMC11208160.

Assay: recombinant UMI read abundance after kanamycin selection (control-corrected) (log10(CPM+1)); higher = more efficient recombination; extreme values may be limits of the assay; sequences stand for … in AGTGCAGAGAAAATCGGCCAGTTTTCTCTGCCTGCAGTCCGCATGCCGTGGGACCCCTTGGGTTCTAACCTGTTGCCTAGATTTATGCAGCGGACTGCCTTTCTCCCAAAGTGATAAACCGG…AGGTTGGTTTCACT; site = the 11-nt donor
Method in brief: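 After plating on IPTG (0.07 mM) plus kanamycin, or unselected, in two replicates, recombinant UMIs were PCR-amplified across the donor–target junction and sequenced. The cells were Escherichia coli co-electroporated with a UMI-tagged donor and donor-binding-loop pair library and a target plasmid with a fixed target and T7-inducible IS621 bridge recombinase. Values are log10(CPM+1), with CPM averaged over replicates and scaled by control-derived factors.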
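Note: IS621 bridge recombinase in Escherichia coli cells against a fixed T5 target plasmid.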

For “TAGCGGCCATGGACCGGTTTTCCCGGTAATCCGTATTTGAA (site TAGCGGCCTTT)”, which “recombinant UMI read abundance (log10)” value is on record?
Its value is 0.205.

Which “recombinant UMI read abundance (log10)” value does the source give for “TAGCGTACATGGACCGGTTTTCCCGGTAATCCGTATTTGTA (site TAGCGTACTTA)” here?
Its value is 1.2.

For “TAGCTAACATGGACCGGTTTTCCCGGTAATCCGTATTTGAA (site TAGCTAACTTT)”, which “recombinant UMI read abundance (log10)” value is on record?
The value was 1.09.

With “TAGCTAACATGGACCGGTTTTCCCGGTAATCCGTATTTGAA (site TAGCTACCTTT)” as the sequence, how does the “recombinant UMI read abundance (log10)” value read?
The value was 0.00585.

With “TAGCTAACATGGACCGGTTTTCCCGGTAATCCGTATTTGAA (site TAGCTAGCTTT)” as the sequence, how does the “recombinant UMI read abundance (log10)” value read?
The value was 0.00737.

With “TAGCTAACATGGACCGGTTTTCCCGGTAATCCGTATTTGAA (site TAGCTATCTTT)” as the sequence, how does the “recombinant UMI read abundance (log10)” value read?
Its value is 0.429.

Which “recombinant UMI read abundance (log10)” value does the source give for “TAGCTACCATGGACCGGTTTTCCCGGTAATCCGTATTTGAA (site TAGCTAACTTT)” here?
Its value is 0.00682.

Which “recombinant UMI read abundance (log10)” value does the source give for “TAGCTACCATGGACCGGTTTTCCCGGTAATCCGTATTTGAA (site TAGCTACCTTT)” here?
The value was 0.00616.

With “TAGCTACCATGGACCGGTTTTCCCGGTAATCCGTATTTGAA (site TAGCTAGCTTT)” as the sequence, how does the “recombinant UMI read abundance (log10)” value read?
The value was 0.00385.

With “TAGCTACCATGGACCGGTTTTCCCGGTAATCCGTATTTGAA (site TAGCTATCTTT)” as the sequence, how does the “recombinant UMI read abundance (log10)” value read?
Its value is 0.784.

Which “recombinant UMI read abundance (log10)” value does the source give for “TAGCTATCATGGACCGGTTTTCCCGGTAATCCGTATTTGAA (site TAGCTAACTTT)” here?
Its value is 0.00325.

With “TAGCTATCATGGACCGGTTTTCCCGGTAATCCGTATTTGAA (site TAGCTACCTTT)” as the sequence, how does the “recombinant UMI read abundance (log10)” value read?
Its value is 0.0124.

For “TAGCTATCATGGACCGGTTTTCCCGGTAATCCGTATTTGAA (site TAGCTAGCTTT)”, which “recombinant UMI read abundance (log10)” value is on record?
Its value is 0.00959.

With “TAGCTATCATGGACCGGTTTTCCCGGTAATCCGTATTTGAA (site TAGCTATCTTT)” as the sequence, how does the “recombinant UMI read abundance (log10)” value read?
Its value is 2.02.

With “TAGCTCACATGGACCGGTTTTCCCGGTAATCCGTATTTGAT (site AAGCTCACTAT)” as the sequence, how does the “recombinant UMI read abundance (log10)” value read?
Its value is 0.00391.

With “TAGCTCACATGGACCGGTTTTCCCGGTAATCCGTATTTGAT (site CAGCTCACTAT)” as the sequence, how does the “recombinant UMI read abundance (log10)” value read?
The value was 0.61.

With “TAGCTCACATGGACCGGTTTTCCCGGTAATCCGTATTTGAT (site GAGCTCACTAT)” as the sequence, how does the “recombinant UMI read abundance (log10)” value read?
Its value is 0.0104.

Which “recombinant UMI read abundance (log10)” value does the source give for “TAGCTCACATGGACCGGTTTTCCCGGTAATCCGTATTTGAT (site TAGCTCACTAT)” here?
The value was 1.47.

For “TAGGAATCATGGACCGGTTTTCCCGGTAATCCGTATTTGGG (site TAGGAATCTCA)”, which “recombinant UMI read abundance (log10)” value is on record?
Its value is 0.407.

With “TAGGAATCATGGACCGGTTTTCCCGGTAATCCGTATTTGGG (site TAGGAATCTCC)” as the sequence, how does the “recombinant UMI read abundance (log10)” value read?
The value was 1.79.

With “TAGGAATCATGGACCGGTTTTCCCGGTAATCCGTATTTGGG (site TAGGAATCTCG)” as the sequence, how does the “recombinant UMI read abundance (log10)” value read?
Its value is 0.

With “TAGGAATCATGGACCGGTTTTCCCGGTAATCCGTATTTGGG (site TAGGAATCTCT)” as the sequence, how does the “recombinant UMI read abundance (log10)” value read?
Its value is 0.56.

Which “recombinant UMI read abundance (log10)” value does the source give for “TAGGATACATGGACCGGTTTTCCCGGTAATCCGTATTTGCA (site TAGAATACTTG)” here?
Its value is 1.71.

With “TAGGATACATGGACCGGTTTTCCCGGTAATCCGTATTTGCA (site TAGCATACTTG)” as the sequence, how does the “recombinant UMI read abundance (log10)” value read?
The value was 0.852.

For “TAGGATACATGGACCGGTTTTCCCGGTAATCCGTATTTGCA (site TAGGATACTTG)”, which “recombinant UMI read abundance (log10)” value is on record?
Its value is 3.06.

With “TAGGATACATGGACCGGTTTTCCCGGTAATCCGTATTTGCA (site TAGTATACTTG)” as the sequence, how does the “recombinant UMI read abundance (log10)” value read?
Its value is 1.44.

Which “recombinant UMI read abundance (log10)” value does the source give for “TAGGATTCATGGACCGGTTTTCCCGGTAATCCGTATTTGCG (site TAGGAATCTCG)” here?
The value was 1.73.

With “TAGGATTCATGGACCGGTTTTCCCGGTAATCCGTATTTGCG (site TAGGACTCTCG)” as the sequence, how does the “recombinant UMI read abundance (log10)” value read?
The value was 1.68.

For “TAGGATTCATGGACCGGTTTTCCCGGTAATCCGTATTTGCG (site TAGGAGTCTCG)”, which “recombinant UMI read abundance (log10)” value is on record?
The value was 0.435.

With “TAGGATTCATGGACCGGTTTTCCCGGTAATCCGTATTTGCG (site TAGGATTCTCG)” as the sequence, how does the “recombinant UMI read abundance (log10)” value read?
Its value is 2.94.

Which “recombinant UMI read abundance (log10)” value does the source give for “TAGGCAACATGGACCGGTTTTCCCGGTAATCCGTATTTGCA (site TAGGCAACTTG)” here?
The value was 0.0204.

With “TAGGCATCATGGACCGGTTTTCCCGGTAATCCGTATTTGCG (site TAGGAATCTCG)” as the sequence, how does the “recombinant UMI read abundance (log10)” value read?
Its value is 0.

For “TAGGCATCATGGACCGGTTTTCCCGGTAATCCGTATTTGCG (site TAGGCATCTCG)”, which “recombinant UMI read abundance (log10)” value is on record?
The value was 1.31.

For “TAGGCATCATGGACCGGTTTTCCCGGTAATCCGTATTTGCG (site TAGGGATCTCG)”, which “recombinant UMI read abundance (log10)” value is on record?
The value was 0.00568.

With “TAGGCATCATGGACCGGTTTTCCCGGTAATCCGTATTTGCG (site TAGGTATCTCG)” as the sequence, how does the “recombinant UMI read abundance (log10)” value read?
The value was 0.449.

For “TAGGGGACATGGACCGGTTTTCCCGGTAATCCGTATTTGAA (site TAGGGGACTTT)”, which “recombinant UMI read abundance (log10)” value is on record?
The value was 1.24.

Which “recombinant UMI read abundance (log10)” value does the source give for “TAGGTAGCATGGACCGGTTTTCCCGGTAATCCGTATTTGAA (site TAGATAGCTTT)” here?
Its value is 0.894.

Which “recombinant UMI read abundance (log10)” value does the source give for “TAGGTAGCATGGACCGGTTTTCCCGGTAATCCGTATTTGAA (site TAGCTAGCTTT)” here?
The value was 0.00863.

Which “recombinant UMI read abundance (log10)” value does the source give for “TAGGTAGCATGGACCGGTTTTCCCGGTAATCCGTATTTGAA (site TAGGTAGCTTT)” here?
The value was 1.67.

Which “recombinant UMI read abundance (log10)” value does the source give for “TAGGTAGCATGGACCGGTTTTCCCGGTAATCCGTATTTGAA (site TAGTTAGCTTT)” here?
Its value is 0.0108.

Which “recombinant UMI read abundance (log10)” value does the source give for “TAGGTATCATGGACCGGTTTTCCCGGTAATCCGTATTTGCG (site TAGGAATCTCG)” here?
The value was 1.02.

For “TAGGTATCATGGACCGGTTTTCCCGGTAATCCGTATTTGCG (site TAGGCATCTCG)”, which “recombinant UMI read abundance (log10)” value is on record?
The value was 1.3.

For “TAGGTATCATGGACCGGTTTTCCCGGTAATCCGTATTTGCG (site TAGGGATCTCG)”, which “recombinant UMI read abundance (log10)” value is on record?
The value was 1.7.

Which “recombinant UMI read abundance (log10)” value does the source give for “TAGGTATCATGGACCGGTTTTCCCGGTAATCCGTATTTGCG (site TAGGTATCTCG)” here?
The value was 2.92.

Which “recombinant UMI read abundance (log10)” value does the source give for “TAGGTTGCATGGACCGGTTTTCCCGGTAATCCGTATTTGGC (site TAGGTTGCTGC)” here?
Its value is 2.62.

Which “recombinant UMI read abundance (log10)” value does the source give for “TAGTACTCATGGACCGGTTTTCCCGGTAATCCGTATTTGCT (site TAGTACTCTAG)” here?
Its value is 2.94.

With “TAGTAGTCATGGACCGGTTTTCCCGGTAATCCGTATTTGGG (site TAGTAGTCTCC)” as the sequence, how does the “recombinant UMI read abundance (log10)” value read?
Its value is 0.369.

For “TAGTCGACATGGACCGGTTTTCCCGGTAATCCGTATTTGGG (site AAGTCGACTCC)”, which “recombinant UMI read abundance (log10)” value is on record?
The value was 0.0151.

Which “recombinant UMI read abundance (log10)” value does the source give for “TAGTCGACATGGACCGGTTTTCCCGGTAATCCGTATTTGGG (site CAGTCGACTCC)” here?
The value was 0.0191.

For “TAGTCGACATGGACCGGTTTTCCCGGTAATCCGTATTTGGG (site GAGTCGACTCC)”, which “recombinant UMI read abundance (log10)” value is on record?
The value was 0.0292.

Which “recombinant UMI read abundance (log10)” value does the source give for “TAGTCGACATGGACCGGTTTTCCCGGTAATCCGTATTTGGG (site TAGTCGACTCC)” here?
Its value is 0.0301.

Which “recombinant UMI read abundance (log10)” value does the source give for “TAGTCGGCATGGACCGGTTTTCCCGGTAATCCGTATTTGAT (site TAGTCGGCTAT)” here?
The value was 0.387.
